Key:
[1] = target: T1, adenylate kinase (AdK) (Escherichia coli, UniProt P69441); assay: coupled spectroscopic assay, […] nm (NADH); format: biochemical; conditions: 0.3 mM AMP, 2 mM MgCl2, 100 mM Tris, 80 mM KCl, pH 7.5; 15, 25, 35 and 45 °C
T1 construct: full-length, no tag mentioned; pEAK-91 vector, AdK promotor, BL21(DE3); Blue Sepharose and size exclusion

[2] = target: T2, adenylate kinase (AdK) (Escherichia coli, UniProt P69441, P177A); assay: isothermal titration calorimetry, single-site fit; format: binding; conditions: 30 mM MOPS, 50 mM NaCl, pH 7.0; measured at 15, 25, 35 and 45 °C
T2 construct: full-length, no tag mentioned; pEAK-91 vector, AdK promotor, BL21(DE3); Blue Sepharose and size exclusion
T2 sequence (P69441 whole entry P177A): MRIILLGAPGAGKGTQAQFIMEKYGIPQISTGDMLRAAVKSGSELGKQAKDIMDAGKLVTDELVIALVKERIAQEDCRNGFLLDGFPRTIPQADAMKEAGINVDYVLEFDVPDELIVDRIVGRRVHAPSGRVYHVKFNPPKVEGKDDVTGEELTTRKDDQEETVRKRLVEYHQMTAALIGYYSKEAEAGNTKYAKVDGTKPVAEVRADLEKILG

[3] = target: T3, adenylate kinase (AdK) (Escherichia coli, UniProt P69441, Y171W); assay: isothermal titration calorimetry, single-site fit; format: binding
T3 construct: full-length, no tag mentioned; pEAK-91 vector, AdK promotor, BL21(DE3); Blue Sepharose and size exclusion
T3 sequence (P69441 whole entry Y171W): as the sequence (P69441 whole entry P177A) above, with Y171W, A177P counted along it

[4] = target: T1, adenylate kinase (AdK); assay: isothermal titration calorimetry, single-site fit; format: binding; conditions: 30 mM MOPS, 50 mM NaCl, pH 7.0; measured at 15, 25, 35 and 45 °C
[5] = target: T1, adenylate kinase (AdK); assay: NMR spectra of the ADP-saturated enzyme; format: binding; conditions: 30 mM MOPS, 50 mM NaCl, pH 7.0; 25 °C

T1 sequence (P69441 whole entry): as the sequence (P69441 whole entry P177A) above, with A177P counted along it

With `Nc1ncnc2c1ncn2[C@@H]1O[C@H](COP(=O)(O)OP(=O)(O)OP(=O)(O)O)[C@@H](O)[C@H]1O` [ATP] the KM [1] was “ATP affinity, KM, for the used spectroscopic assay”.
With `Nc1ncnc2c1ncn2[C@@H]1O[C@H](COP(=O)(O)OP(=O)(O)OP(=O)(O)OP(=O)(O)OP(=O)(O)OC[C@H]2O[C@@H](n3cnc4c(N)ncnc43)[C@H](O)[C@@H]2O)[C@@H](O)[C@H]1O` [Ap5a, P1,P5-di(adenosine-5′)pentaphosphate] the KD [2] was “KD values for the wild type, P177A and Y171W variants”, the Kd [3] was 250 ± 60 nM and the KD [4] was “KD values for the wild type, P177A and Y171W variants”.
In the case of `Nc1ncnc2c1ncn2[C@@H]1O[C@H](COP(=O)(O)OP(=O)(O)O)[C@@H](O)[C@H]1O` [ADP], the “NMR spectra of the ADP-saturated enzyme” value [5] is reported as “wild-type AdK in complex with saturating concentrations of the natural substrate ADP”.

Reference: PMC4506515, “Structural basis for catalytically restrictive dynamics of a high-energy enzyme state” (Nature Communications, 2015)
